Values joined by “and” are separate entries in the source; they are usually repeats but may differ in a detail not shown here. Identical values can stand only once. Like-named read-outs stand apart in the source and are kept apart here.
Legend:
TrBgl2 [1] = target: T1, TrBgl2 (Trichoderma reesei, UniProt O93785); test: MUG cleavage fluorescent kinetic assay (AC50 / Amax / IC50); type: biochemical
Method: A fluorescent kinetic assay was performed for library screening of TrBgl2 using 500 µM 4-methylumbelliferyl-β-D-glucopyranoside (MUG) in a total volume of 150 µL per well. Compounds dissolved in DMSO were added to each well to yield a final concentration from 1 to 2 mM. The reactions were performed in 160 mM phosphate–citrate buffer in pH 6.0, initiated by adding 20 µL of the enzyme to give a final concentration of 100 nM and were assayed at 40°C. The fluorescent 4-methylumbelliferyl release was recorded continuously at 355 nm excitation and 460 nm emission for 20 s using a BMG Labtech POLARstar OPTIMA plate reader. Control experiments were performed to evaluate the possibility of interference from the intrinsic fluorescence of compounds in the library by repeating the assay in the absence of the enzyme.
(§1) Assays were carried out in a 96 well plate (Black Nunc F96 MicroWell Plates) at 40 and 45°C for TrBgl2 and CcBglA, respectively, in 160 mM phosphate–citrate buffer in pH 6.0 and 2.5% DMSO. Reactions were initiated by the addition of 20 µL of protein to a final concentration of 100 nM, followed by 5 s of shaking. The fluorescent 4-methylumbelliferyl release was recorded continuously at 355 nm excitation and 460 nm emission for 20 s using a BMG Labtech POLARstar OPTIMA plate reader. Rates were calculated using GraphPad Prism 5.0 as the slope of the curve of the collected data. Corrections were made to the detected gradients to adjust for the inner filter effect of MUG and convert the gradients into units of µmol min^−1 according to a standard curve for MUG. The initial slopes were fitted to sigmoidal dose-response curves using GraphPad Prism 5.0 and the AC50 values extracted. Inhibition of TrBgl2 by isofagomine (IC50) was determined in similar manner to the AC50 values.

TrBgl2 [2] = target: T1, TrBgl2; test: Michaelis-Menten and covariation kinetics with MUG; type: biochemical
Method: Apparent KM and kcat values were calculated from a Michaelis–Menten curve fit to 9-point substrate titrations at a constant concentration of compounds. The covariation experiments used the same range of substrate concentrations across an activator and inhibitor concentration range. The data obtained from these experiments was fit to the nonessential activator and mixed-model inhibition equation, respectively.

TrBgl2 [3] = target: T1, TrBgl2; test: STD NMR ligand-observed binding; settings: compound 500 µM, TrBgl2 20 µM; for binding to TrBgl2 by STD NMR: absence of isofagomine; for binding to TrBgl2 by STD NMR in presence of isofagomine: isofagomine 40 µM
Method: The samples contained 20 µM unlabelled TrBgl2, fragments at a concentration of 500 µM per compound and 100 µM sodium trimethylsilylpropanesulfonate (DSS) in 50 mM phosphate buffer containing 25 mM NaCl and 5% D2O at pH 6.0. The experiments were recorded by using a Bruker standard pulse sequence (stddiffesgp.3 [19]). The on-resonance frequency was set to 0.25 ppm and off-resonance irradiation was applied at 40 ppm. STD NMR spectra were collected with a total of 16 scans (NS), 5 s delay between the scans (d1), a saturation time of 4 s (d20) and 1.5 s acquisition time (AQ).

E367Q TrBgl2 = test: Thermal shift assay (TSA); type: binding, Trichoderma reesei
Method: Thermal shift screens were performed in 96-well polypropylene PCR plates (Agilent 401334) with a final volume 25 µL/well. […] Melting data were collected using an Agilent Stratagene Mx3005P rtPCR machine ramping from 25 to 95°C at 30 s per degree. Data were analysed with a combination of the Agilent MxPro software, MTS [16], JTSA (http://paulsbond.co.uk/jtsa) and the DSF analysis spreadsheet in Excel.

Solubility of compound = type: physicochemical
TrBgl2 [4] = target: T1, TrBgl2; test: Protein-observed NMR chemical shift perturbation (1H-15N TROSY); type: binding; settings: compound 8 mM (8 also 16 mM), 15N TrBgl2 120 µM
Method: For backbone chemical shift perturbations (CSPs), each sample was prepared with 120 µM ^15N isotope-labelled TrBgl2 or E367Q TrBgl2, 8 mM or 16 mM of compound 8 or 10, 5 mM of MUG substrate and 100 µM DSS in 50 mM TRIS buffer containing 100 mM NaCl and 10% D2O at pH 8.0. The final DMSO concentration was usually not above 3.8%(v/v). ^1H-^15N TROSY spectra of the enzyme with DMSO in the buffer were collected as controls. ^1H-^15N TROSY spectra were collected by using a Bruker standard pulse sequence (trosyetf3gpsi) with 128 scans (NS), 1.5 s delay between the scans (d1), 35 ppm spectra width (SW), 256-time domain data size (TD) and 117 ppm irradiation carrier frequency offset (O1P).
For IVL methyl group CSPs, each sample was prepared with 250 µM of ^15N, ^13C, ^2H and IVL methyl group specifically labelled TrBgl2, 8 mM of compound 8, in 50 mM TRIS buffer containing 100 mM NaCl and 10% D2O at pH 8.0. The final DMSO concentration was usually not above 3.8% (v/v). ^1H-^13C HSQC spectra of the enzyme with DMSO in the buffer were collected as controls. ^1H-^13C HSQC spectra were recorded by using a Bruker standard pulse sequence (hsqcctetgpsp) with 8 scans (NS), 1.5 s delay between the scans (d1), 30 ppm spectra width (SW), 256-time domain data size (TD) and 15 ppm irradiation carrier frequency offset (O1P).

CcBglA = test: MUG cleavage assay on CcBglA (selectivity); type: biochemical, Clostridium cellulovorans; settings: MUG 500 µM, titration 63 µM to 8 mM
Method: as §1

[5] = pH 6, titration of compound from 30 µM to 3.8 mM, substrate conc. 500 µM, read-out: Amax
[6] = titration of compound from 30 µM to 3.8 mM, substrate conc. 500 µM
[7] = pH 6, titration of compound from 63 µM to 8 mM, substrate conc. 500 µM, read-out: Amax
[8] = titration of compound from 63 µM to 8 mM, substrate conc. 500 µM
[9] = E367Q TrBgl2 in the presence of MUG (4 mM), compound 4 mM
[10] = apo E367Q TrBgl2, compound 4 mM, without MUG

T1 sequence (O93785 entry or part of it): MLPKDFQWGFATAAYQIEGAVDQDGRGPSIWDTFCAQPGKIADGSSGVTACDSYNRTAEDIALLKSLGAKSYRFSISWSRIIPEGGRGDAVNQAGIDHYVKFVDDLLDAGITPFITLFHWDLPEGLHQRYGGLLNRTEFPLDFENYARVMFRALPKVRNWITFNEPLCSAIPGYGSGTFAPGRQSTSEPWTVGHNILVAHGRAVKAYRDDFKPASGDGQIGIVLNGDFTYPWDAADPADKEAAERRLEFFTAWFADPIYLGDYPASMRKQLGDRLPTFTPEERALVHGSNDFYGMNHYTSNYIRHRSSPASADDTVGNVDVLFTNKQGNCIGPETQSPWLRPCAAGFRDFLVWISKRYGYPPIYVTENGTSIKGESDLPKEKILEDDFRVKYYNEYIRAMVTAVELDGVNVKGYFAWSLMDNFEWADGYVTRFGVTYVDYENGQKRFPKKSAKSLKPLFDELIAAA

Row | Emax (TrBgl2 [1]; [5]) [%] | AC50 (TrBgl2 [1]; [6]) [µM] | Emax (TrBgl2 [1]; [7]) [%] | AC50 (TrBgl2 [1]; [8]) [µM] | Structure (SMILES) | binding to TrBgl2 by STD NMR (TrBgl2 [3]) | binding to TrBgl2 by STD NMR in presence of isofagomine (TrBgl2 [3]) | further results
1 | 155 | > 4000 |  |  | S=C(Nc1ccccc1Cl)N1CCOCC1 [Compound 3] |  |  | 
2 | 139 | 1810 ± 96 |  |  | Cc1ccccc1NC(=S)N1CCOCC1 [Compound 4] |  |  | 
3 | 160 | > 4000 |  |  | Cc1ccc(C)c(NC(=S)N2CCOCC2)c1 [Compound 5] |  |  | 
4 |  |  | 143 | > 4000 | COc1ccccc1NC(=S)N1CCOCC1 [Compound 6] |  |  | 

The next lines start with the compound.

Row | Structure (SMILES) | Emax (TrBgl2 [1]; [5]) [%] | AC50 (TrBgl2 [1]; [6]) [µM] | Emax (TrBgl2 [1]; [7]) [%] | AC50 (TrBgl2 [1]; [8]) [µM] | binding to TrBgl2 by STD NMR (TrBgl2 [3]) | binding to TrBgl2 by STD NMR in presence of isofagomine (TrBgl2 [3]) | further results
5 | Cc1cccc(C)c1NC(=S)N1CCOCC1 [Compound 1] |  |  |  |  | showed evidence of binding | binding was also observed | AC50 (TrBgl2 [1]; MUG substrate 500 μM): 1000 µM and ~1000 µM; Emax (TrBgl2 [1]; MUG substrate 500 μM, read-out: Amax (maximal activation obtained)): ~155%; improvement in kcat/KM (TrBgl2 [2]; Michaelis-Menten analysis, MUG, in presence of 1 (3 mM) vs absence): approximately 2 fold
6 | Cc1cccc(C)c1NC(=S)N1CCCCC1CO (centres unmarked) [Compound 7] |  |  | 161 | 1530 ± 312 |  |  | 
7 | CCN(CCO)C(=S)Nc1c(C)cccc1C [Compound 8] |  |  | ≤ 188 | > 4000 | clear signal intensity | clear signal intensity | α modifier (nonessential activator model) (TrBgl2 [2]; covariation fit, MUG substrate): 0.64; β modifier (nonessential activator model, modifies kcat) (TrBgl2 [2]; covariation fit, MUG substrate): 1.5; enhancement of substrate affinity (TrBgl2 [2]; in the presence of activator): approximately 1.5 fold; increase of Tm (E367Q TrBgl2; [9]): ~1.2 °C; decrease of Tm (E367Q TrBgl2; [10]): ~1 °C; solubility (Solubility of compound): ≤ 16 mM; amide chemical shift changes on addition of compound (1H-15N TROSY) (TrBgl2 [4]): indicating a specific binding event
8 | Cc1cccc(C)c1NC(=S)NCCO [Compound 9] | 128 | > 4000 |  |  |  |  | 
9 | S=C(Nc1ccc2nccnc2c1)N1CCOCC1 [Compound 10] |  |  |  |  | clear signal intensity | clear signal intensity | IC50 (TrBgl2 [1]; [8]): 312 ± 32 µM; inhibition (TrBgl2 [1]; titration of compound from 63 µM to 8 mM, substrate conc. 500 µM, read-out: Maximum inhibition): 96%; α modifier (reversible mixed inhibition model) (TrBgl2 [2]; covariation fit, MUG substrate): 3.65; decrease of Tm (E367Q TrBgl2; [9]): ~4 °C; decrease of Tm (E367Q TrBgl2; [10]): ~4 °C; inhibition of CcBglA (CcBglA): inhibited both enzymes to a similar degree; amide chemical shift changes on addition of compound (1H-15N TROSY) (TrBgl2 [4]): smaller but similar changes as seen for 8
10 | OC[C@H]1CNC[C@@H](O)[C@@H]1O [isofagomine, reference compound] |  |  |  |  |  |  | IC50 (TrBgl2 [1]; inhibition of TrBgl2, MUG substrate): 0.53 ± 0.12 µM

Source: article PMC7702302, “Fragment-derived modulators of an industrial β-glucosidase” (Biochemical Journal, 2020)
